Measurements published in patent publication US20100166897A1, “COMBINATION OF MONOSACCHARIDES WITH ANTIOXIDANTS AND USE THEREOF” (L'OREAL, priority 2008, published 2010).

Assays:
type I procollagen = assay: Synthesis of procollagen 1 in reconstructed skin (indirect immunofluorescence); format: cell-based, human
Protocol: Conventional detection via indirect immunofluorescence of type I procollagen in the dermis of the reconstructed skin was also performed on other series of frozen sections (anti-procoll 1 antibody (MAB 1912 Millipore)+FTIC-coupled conjugate (112-095-068 Jackson Immunoresearch)). In order to obtain bearings within the cutaneous architecture during the microscopic examination of the sections, the cell nuclei of the keratinocytes and fibroblasts are localized by staining them with propidium iodide, as described above. Three frozen sections are prepared at random on each reconstructed skin and on each section, and two microscopic fields (25× objective lens) are analysed is by fluorescence microscopy and photographed. The levels of fluorescence proportional to the amount of type I procollagen are compared between the control skin and the skin treated with rhamnose.

[1] = test system: dermal fibroblasts of the reconstructed skin; assay: Proliferation of fibroblasts in whole reconstructed skin (propidium iodide count on frozen sections); format: cell-based, human; conditions: 5 mM rhamnose; within 48 hours of treatment
Description: Rhamnose was studied on a model of whole reconstructed skin in order to measure its anti-ageing efficacy on the dermal compartment.
Briefly, the model of reconstructed skin used is that described by Bell et al. (Bell E. et al., The reconstitution of living skin, J. Invest. Dermatol., 1983, July; 81): it includes a dermal equivalent on which is reconstructed a multistratified epidermis; the dermal equivalent is manufactured from acid-soluble collagen, culture medium containing serum and normal adult human fibroblasts. After 5 days of shrinkage, this equivalent is inoculated with keratinocytes and then cultured for 6 days in immersion and for 7 days in emersion in order to obtain a multistratified and differentiated epidermis having a horny layer.
The reconstructed skin is treated with 5 mM rhamnose for 2 days and 5 days in the culture medium; after the treatment, the reconstructed skins are included in Tissue Tek in order to produce frozen sections 7 μm thick with a cryostat. […] Three frozen sections are prepared at random on each reconstructed skin; on each section, two microscopic fields (25× objective lens) are analysed by fluorescence microscopy and photographed. The dermal fibroblasts are thus counted for each reconstructed skin on six images in total representing the six microscopic fields considered. […]

[2] = test system: keratinocytes (HaCat line); assay: Proliferation of keratinocytes (HaCat line) in medium deficient in growth factors; Cyquant, Nile red and XTT probes; format: cell-based
Protocol: The keratinocytes (HaCat line) are cultured under two conditions: whole defined culture medium (standard condition) and culture medium deficient in growth factors. This deficient medium gives rise to a controlled delay in cell proliferation. Under these conditions, it is then possible to measure the effects of compounds capable of compensating for the deficiency in growth factors of the culture medium and thus of relaunching the cell multiplication and/or of stimulating cell metabolism.
The keratinocyte proliferation is measured by means of three markers on the same cell population: the level of DNA, which is proportional to the number of cells (Cyquant probe), the level of constituent polar lipids of cell membranes (Nile red probe) and the mitochondrial respiration, which reflects the general cell metabolism (XTT probe).

SMILES: C[C@H](O)[C@H](O)[C@@H](O)[C@@H](O)C=O [rhamnose]
- synthesis of type I procollagen by the fibroblasts (type I procollagen; 1 mM rhamnose for 120 hours, reconstructed skin): greatly stimulated
- green fluorescence (proportional to amount of type I procollagen) compared with control skin (type I procollagen; 1 mM rhamnose for 120 hours, reconstructed skin section): marked increase
- procollagen 1 synthesis (type I procollagen; 1 mM, reconstructed skin): stimulation of procollagen 1 synthesis
- procollagen 1 synthesis (type I procollagen; 5 mM, reconstructed skin): stimulation of procollagen 1 synthesis
- growth of the dermal fibroblasts of the reconstructed skin [1]: stimulation of growth
- number of cells compared with an untreated control ([2]; keratinocytes cultured in medium depleted in growth factor): higher number of cells
- keratinocyte proliferation ([2]; keratinocytes cultured in medium depleted in growth factors): activate keratinocyte proliferation
